Our source for the IC50, MIC and Activity values is ChEMBL document CHEMBL1145509, “Defining the molecular forces that determine the impact of neomycin on bacterial protein synthesis: importance of the 2'-amino functionality” (Antimicrob Agents Chemother, 2007).

The test system of assay [1] is Escherichia coli. Description: Antitranslation activity in Escherichia coli extract rRNA S30 assessed as inhibition of luciferase expression by transcription-translation assay. It is filed as functional.
Assay [2] relates to Escherichia coli. Description: Antibacterial activity against Escherichia coli DH5-alpha after 24 hrs by broth dilution assay. It is filed as functional. The settings on record: DH5alpha.
The test system of assay [3] is Escherichia coli. Description: Binding affinity to Escherichia coli 16S rRNA A-site model at Ec2AP1493 position assessed as shorter rotational correlation time by time resolved fluorescence anisotropy.
Assay [4] has as its system Escherichia coli. Description: Binding affinity to Escherichia coli 16S rRNA A-site model at Ec2AP1493 position assessed as two rotational correlation time by time resolved fluorescence anisotropy. For orientation: In fluorescence polarisation assays a small probe gives low polarisation when free and higher when bound to something large.
In assay [5] the test system is Escherichia coli. Description: Binding affinity to Escherichia coli 16S rRNA A-site model at Ec2AP1492 position assessed as two rotational correlation time by time resolved fluorescence anisotropy.
In assay [6] the test system is Escherichia coli. Description: Binding affinity to Escherichia coli 16S rRNA A-site model at Ec2AP1492 position assessed as shorter rotational correlation time by time resolved fluorescence anisotropy.

In brackets after ≈: the same amount, converted by molar mass.

For the compound `NC[C@@H]1O[C@H](O[C@@H]2[C@@H](O)[C@@H]3OC4[C@@H](O)[C@H](N)C[C@H](N)[C@H]4O[C@H]4O[C@H](CN)[C@@H](O)[C@H](O)[C@H]4NC[C@H]2O3)[C@H](N)[C@@H](O)[C@@H]1O` (some centres not stated), the IC50 in assay [1] came out at 1100 nM. Also, it took 119 µg/mL (≈ 199 µM) to inhibit growth in assay [2] (MIC). The Activity in assay [3] is 0.65 nanoseconds; in assay [4] it was 3.95 nanoseconds; in assay [5], 4.38 nanoseconds; in assay [6] it was 0.76 nanoseconds.
Turning to `NC[C@@H]1O[C@H](O[C@@H]2[C@@H](O)[C@H](O[C@@H]3[C@@H](O)[C@H](N)C[C@H](N)[C@@H]3O[C@H]3O[C@H](CN)[C@@H](O)[C@H](O)[C@H]3N)O[C@@H]2CO)[C@H](N)[C@@H](O)[C@@H]1O`, in assay [1], the IC50 worked out at 50 nM. Further, the MIC in assay [2] is 1.9 µg/mL (≈ 3.09 µM). For the same compound, the Activity in assay [3] came out at 1.96 nanoseconds; in assay [4], 5.32 nanoseconds; in assay [5], 7.32 nanoseconds; in assay [6] it was 2.35 nanoseconds.

In general, IC50 refers to the concentration that gives 50% inhibition. One may read the MIC as the lowest concentration found to suppress growth.
